Experimental data from PubChem BioAssay AID242 (DTP/NCI, 2004).
Where “and” joins values, the source holds several entries; their conditions need not be identical. Identical values can stand only once. Toxic doses and inconclusive results are not listed.

Tested on: BDF1 mice, Lymphoma 8 ip, survival T/C
Assay: NCI In Vivo Anticancer Drug Screen. Data for tumor model Lymphoma 8 (intraperitoneal) in B6D2F1 (BDF1) mice
Settings: higher = longer survival
Procedure: The antitumor activity of compounds was measured in mice bearing transplantable tumors. Survival or tumor size were measured and the results are expressed as the measurement made in the treated group (T) divided by the measurement made in the vehicle treated control group (C). The tumor model used in this assay is Lymphoma 8 (intraperitoneal) in B6D2F1 (BDF1) mice

[1] = endpoint: survival time, mean or median, dose: 62.5 mg/kg/injection, schedule: Q01DX010 (ip), vehicle: saline
[2] = endpoint: survival time, mean or median, dose: 125.0 mg/kg/injection, schedule: Q01DX010 (ip), vehicle: saline
[3] = endpoint: survival time, mean or median, dose: 250.0 mg/kg/injection, schedule: Q01DX010 (ip), vehicle: saline
[4] = endpoint: survival time, mean or median, dose: 500.0 mg/kg/injection, schedule: Q01DX010 (ip), vehicle: saline
[5] = endpoint: survival time, mean or median, dose: 1.25 mg/kg/injection, schedule: Q01DX010 (ip), vehicle: saline
[6] = endpoint: survival time, mean or median, dose: 5.0 mg/kg/injection, schedule: Q01DX010 (ip), vehicle: saline
[7] = endpoint: survival time, mean or median, dose: 10.0 mg/kg/injection, schedule: Q01DX010 (ip), vehicle: saline
[8] = endpoint: survival time, mean or median, dose: 25.0 mg/kg/injection, schedule: Q01DX015 (ip), vehicle: carboxymethylcellulose (CMC)
[9] = endpoint: survival time, mean or median, dose: 50.0 mg/kg/injection, schedule: Q01DX015 (ip), vehicle: carboxymethylcellulose (CMC)
[10] = endpoint: survival time, mean or median, dose: 100.0 mg/kg/injection, schedule: Q01DX015 (ip), vehicle: carboxymethylcellulose (CMC)
[11] = endpoint: survival time, mean or median, dose: 15.6 mg/kg/injection, schedule: Q01DX010 (ip), vehicle: saline
[12] = endpoint: survival time, mean or median, dose: 31.3 mg/kg/injection, schedule: Q01DX010 (ip), vehicle: saline
[13] = endpoint: survival time, mean or median, dose: 20.0 mg/kg/injection, schedule: Q01DX010 (ip), vehicle: saline
[14] = endpoint: survival time, mean or median, dose: 40.0 mg/kg/injection, schedule: Q01DX010 (ip), vehicle: saline
[15] = endpoint: survival time, mean or median, dose: 80.0 mg/kg/injection, schedule: Q01DX010 (ip), vehicle: saline
[16] = endpoint: survival time, mean or median, dose: 12.5 mg/kg/injection, schedule: Q01DX010 (ip), vehicle: saline
[17] = endpoint: survival time, mean or median, dose: 25.0 mg/kg/injection, schedule: Q01DX010 (ip), vehicle: saline
[18] = endpoint: survival time, mean or median, dose: 50.0 mg/kg/injection, schedule: Q01DX010 (ip), vehicle: saline

NC(=O)c1[nH]nc(C2OC(CO)C(O)C2O)c1O (centres undefined)
T/C (endpoint: median survival time, dose: 1.56 mg/kg/injection, schedule: Q04DX003 (ip), vehicle: saline): 100 % of control | T/C (endpoint: median survival time, dose: 2.59 mg/kg/injection, schedule: Q04DX003 (ip), vehicle: saline): 103 % of control | T/C (endpoint: median survival time, dose: 4.32 mg/kg/injection, schedule: Q04DX003 (ip), vehicle: saline): 103 % of control | T/C (endpoint: median survival time, dose: 7.2 mg/kg/injection, schedule: Q04DX003 (ip), vehicle: saline): 104 % of control | T/C (endpoint: median survival time, dose: 12.0 mg/kg/injection, schedule: Q04DX003 (ip), vehicle: saline): 122 % of control | T/C (endpoint: median survival time, dose: 20.0 mg/kg/injection, schedule: Q04DX003 (ip), vehicle: saline): 111 % of control

C[C@@H]1C[C@H]2CC[C@H](O2)[C@H](C)C(=O)O[C@@H](C)C[C@@H]2CC[C@@H](O2)[C@@H](C)C(=O)O[C@H](C)C[C@H]2CC[C@H](O2)[C@H](C)C(=O)O[C@@H](C)C[C@@H]2CC[C@@H](O2)[C@@H](C)C(=O)O1
T/C (endpoint: survival time, mean or median, dose: 45.0 mg/kg/injection, schedule: Q01DX015 (ip), vehicle: other): 102 % of control | T/C (endpoint: survival time, mean or median, dose: 90.0 mg/kg/injection, schedule: Q01DX015 (ip), vehicle: other): 94 % of control | T/C (endpoint: survival time, mean or median, dose: 360.0 mg/kg/injection, schedule: Q01DX015 (ip), vehicle: other): 88 % of control

CC(=O)N(C)C
T/C [1]: 86 % of control and 105 % of control and 121 % of control | T/C [2]: 95 % of control and 100 % of control and 112 % of control | T/C [3]: 95 % of control and 105 % of control | T/C [4]: 95 % of control and 100 % of control and 115 % of control

N#[N+]c1cnc([O-])[nH]c1=O
T/C [5]: 107 % of control | T/C (endpoint: survival time, mean or median, dose: 2.5 mg/kg/injection, schedule: Q01DX010 (ip), vehicle: saline): 103 % of control | T/C [6]: 121 % of control | T/C [7]: 121 % of control

Cn1c(O)c(N=NC(N)=S)c2ccccc21
T/C (endpoint: survival time, mean or median, dose: 1.5 mg/kg/injection, schedule: Q01DX015 (ip), vehicle: carboxymethylcellulose (CMC)): 100 % of control | T/C (endpoint: survival time, mean or median, dose: 3.0 mg/kg/injection, schedule: Q01DX015 (ip), vehicle: carboxymethylcellulose (CMC)): 98 % of control | T/C (endpoint: survival time, mean or median, dose: 6.0 mg/kg/injection, schedule: Q01DX015 (ip), vehicle: carboxymethylcellulose (CMC)): 99 % of control | T/C (endpoint: survival time, mean or median, dose: 12.5 mg/kg/injection, schedule: Q01DX015 (ip), vehicle: carboxymethylcellulose (CMC)): 95 % of control | T/C [8]: 97 % of control | T/C [9]: 124 % of control | T/C [10]: 117 % of control | T/C (endpoint: survival time, mean or median, dose: 200.0 mg/kg/injection, schedule: Q01DX015 (ip), vehicle: carboxymethylcellulose (CMC)): 115 % of control

CCn1cnc2c(=S)nc[nH]c21
T/C [11]: 91 % of control and 100 % of control | T/C [12]: 100 % of control | T/C [1]: 92 % of control and 100 % of control

Cc1c(O)ccc(=O)n1O
T/C (endpoint: survival time, mean or median, dose: 49.0 mg/kg/injection, schedule: Q01DX015 (ip), vehicle: other): 100 % of control | T/C (endpoint: survival time, mean or median, dose: 73.0 mg/kg/injection, schedule: Q01DX015 (ip), vehicle: other): 97 % of control | T/C (endpoint: survival time, mean or median, dose: 110.0 mg/kg/injection, schedule: Q01DX015 (ip), vehicle: other): 105 % of control

CCOC(N)=O
T/C [2]: 105 % of control | T/C [3]: 100 % of control | T/C [4]: 100 % of control

CN(N=O)C(=O)N[C@@H](C=O)[C@@H](O)[C@H](O)[C@H](O)CO
T/C (endpoint: survival time, mean or median, dose: 12.5 mg/kg/injection, schedule: Q01DX008 (im), vehicle: saline): 124 % of control | T/C (endpoint: survival time, mean or median, dose: 12.5 mg/kg/injection, schedule: Q01DX008 (ip), vehicle: saline): 116 % of control | T/C (endpoint: survival time, mean or median, dose: 12.5 mg/kg/injection, schedule: Q01DX008 (iv), vehicle: saline): 97 % of control | T/C (endpoint: survival time, mean or median, dose: 12.5 mg/kg/injection, schedule: Q01DX008 (sc), vehicle: saline): 116 % of control | T/C (endpoint: survival time, mean or median, dose: 25.0 mg/kg/injection, schedule: Q01DX008 (ip), vehicle: saline): 115 % of control | T/C (endpoint: survival time, mean or median, dose: 25.0 mg/kg/injection, schedule: Q01DX008 (iv), vehicle: saline): 106 % of control | T/C (endpoint: survival time, mean or median, dose: 25.0 mg/kg/injection, schedule: Q01DX008 (sc), vehicle: saline): 124 % of control | T/C (endpoint: survival time, mean or median, dose: 50.0 mg/kg/injection, schedule: Q01DX008 (iv), vehicle: saline): 107 % of control | T/C (endpoint: survival time, mean or median, dose: 100.0 mg/kg/injection, schedule: Q01DX008 (im), vehicle: saline): 86 % of control | T/C (endpoint: survival time, mean or median, dose: 100.0 mg/kg/injection, schedule: Q01DX008 (ip), vehicle: saline): 96 % of control | T/C (endpoint: survival time, mean or median, dose: 100.0 mg/kg/injection, schedule: Q01DX008 (iv), vehicle: saline): 106 % of control | T/C (endpoint: survival time, mean or median, dose: 100.0 mg/kg/injection, schedule: Q01DX Z (oral), vehicle: saline): 100 % of control | T/C (endpoint: survival time, mean or median, dose: 200.0 mg/kg/injection, schedule: Q01DX Z (oral), vehicle: saline): 100 % of control | T/C (endpoint: survival time, mean or median, dose: 400.0 mg/kg/injection, schedule: Q01DX Z (oral), vehicle: saline): 117 % of control | T/C (endpoint: survival time, mean or median, dose: 800.0 mg/kg/injection, schedule: Q01DX Z (oral), vehicle: saline): 97 % of control

C[C@@H]1C[C@@H]([C@H](O)CC2CC(=O)NC(=O)C2)C(=O)[C@@H](C)C1
T/C [6]: 115 % of control | T/C [7]: 105 % of control | T/C [13]: 115 % of control | T/C [14]: 120 % of control

CCN(CCNc1ccc(C)c2sc3cc(Cl)ccc3c(=O)c12)CC(C)O (centres undefined)
T/C (endpoint: survival time, mean or median, dose: 7.8 mg/kg/injection, schedule: Q01DX010 (ip), vehicle: saline): 100 % of control | T/C [11]: 100 % of control | T/C [12]: 96 % of control

CC(=O)OCC1OC(n2cnc3c(=S)nc[nH]c32)C(OC(C)=O)C1OC(C)=O (centres undefined)
T/C [8]: 101 % of control | T/C [9]: 109 % of control | T/C [10]: 104 % of control

O=NN(CCCl)C(=O)NCCCl
T/C (endpoint: survival time, mean or median, dose: 2.64 mg/kg/injection, schedule: Q01DX015 (ip), vehicle: saline): 90 % of control

OCC1OC(n2cnc3c(=S)nc[nH]c32)C(O)C1O (centres undefined)
T/C [13]: 104 % of control and 112 % of control | T/C [14]: 100 % of control and 109 % of control and 112 % of control | T/C [15]: 105 % of control and 118 % of control and 121 % of control | T/C (endpoint: survival time, mean or median, dose: 160.0 mg/kg/injection, schedule: Q01DX010 (ip), vehicle: saline): 93 % of control and 118 % of control

COc1cc(-c2ccc(Nc3ccccc3C(=O)O)c(OC)c2)ccc1N
T/C [13]: 92 % of control and 100 % of control | T/C [14]: 100 % of control | T/C [15]: 92 % of control and 120 % of control

Nc1c(Br)cc2c(c1Br)Cc1cc([N+](=O)[O-])ccc1-2
T/C (endpoint: survival time, mean or median, dose: 62.5 mg/kg/injection, schedule: Q01DX015 (ip), vehicle: carboxymethylcellulose (CMC)): 88 % of control | T/C (endpoint: survival time, mean or median, dose: 125.0 mg/kg/injection, schedule: Q01DX015 (ip), vehicle: carboxymethylcellulose (CMC)): 87 % of control

N[C@@H](Cc1ccc(N(CCCl)CCCl)cc1)C(=O)O
T/C (endpoint: survival time, mean or median, dose: 4.0 mg/kg/injection, schedule: Q01DX015 (ip), vehicle: carboxymethylcellulose (CMC)): 91 % of control

CS(=O)(=O)OCCCCOS(C)(=O)=O
T/C (endpoint: survival time, mean or median, dose: 6.25 mg/kg/injection, schedule: Q01DX010 (ip), vehicle: saline): 100 % of control | T/C [16]: 105 % of control | T/C [17]: 100 % of control | T/C [18]: 105 % of control

Nc1nc(=S)c2[nH]cnc2[nH]1
T/C (endpoint: survival time, mean or median, dose: 1.25 mg/kg/injection, schedule: Q01DX010 (ip), vehicle: other): 120 % of control | T/C (endpoint: survival time, mean or median, dose: 5.0 mg/kg/injection, schedule: Q01DX010 (ip), vehicle: other): 115 % of control | T/C (endpoint: survival time, mean or median, dose: 10.0 mg/kg/injection, schedule: Q01DX010 (ip), vehicle: other): 110 % of control

CS(=O)(=O)OCCC(=O)N1CCN(C(=O)CCOS(C)(=O)=O)CC1
T/C [16]: 116 % of control | T/C [17]: 123 % of control | T/C [18]: 156 % of control | T/C (endpoint: survival time, mean or median, dose: 100.0 mg/kg/injection, schedule: Q01DX010 (ip), vehicle: saline): 203 % of control

Oc1cc(CN(CCCl)CCCl)c(O)cc1CN(CCCl)CCCl
T/C (endpoint: survival time, mean or median, dose: 0.63 mg/kg/injection, schedule: Q01DX010 (ip), vehicle: saline): 104 % of control and 107 % of control | T/C [5]: 104 % of control | T/C [6]: 103 % of control and 120 % of control
